Laboratory results as given in patent publication US11110105B2, “Compounds, composition and uses thereof for treating cancer” (INSTITUT GUSTAVE ROUSSY, priority 2017, dated 2021).

Legend:
Assay type in all cases: cell-based
[1] = MTT viability, human cells (text summary of table 1); settings: concentrations used (2.5 and 6.25 μM), A375, A549, MRC5, read-out: viability of human cells upon treatment
Description: Cancer cells display different intracellular mechanisms that can shape the pool and the quantity of peptides presented on MHC class I (MHC-I) molecules at their surface, leading to reduction of their antigenicity and escape of T-cell recognition. Inventors have shown that PTPs are a major source of peptides for the endogenous MHC-I pathway in vitro. In addition, they have provided the first proof of the positive impact of splicing inhibition on PTPs-dependent antigen presentation by treating HEK cells with the splicing inhibitor isoginkgetin. The latter has been reported to inhibit the spliceosome during the early stages of its assembly. In view to improve antigenicity and immune recognition of cancer cell lines, inventors determined whether isoginkgetin was able to modulate positively the expression and the presentation of tumor associated PTPs-derived antigens (TA-PTPs) at cancer cells surface. For that purpose, the human melanoma cell line A375, the human lung cancer cell line A549 and the normal human fibroblast lung cell line MRC5 were transiently expressing the MHC-I H2-K^b molecule and the PTPs-SL8 epitope from an intron within the β-Globin gene construct (Globin-SL8-intron) and treated with different concentrations of isoginkgetin for 18 h. […]

[2] = MTT assay on A375 cell line; settings: human, A375 melanoma cells, read-out: % cell viability (±SEM)
Protocol: MCA205 mouse sarcoma cell line is cultured at 37° C. under 5% CO2 in RPMI 1640 medium (Life Technologies) in the presence of 1% glutamine, 1% sodium pyruvate, 1% non-essential amino-acids, 1% penicillin/streptomycin and 10% FBS (Life Technologies) under standard conditions. B16F10 mouse melanoma cell line, MRC5 human fibroblast cell line and A375 human melanoma cell line are cultured at 37° C. under 5% CO2 in DMEM medium (Life Technologies) containing 1% glutamine, 1% penicillin/streptomycin and 10% FCS under standard conditions. A549 human lung carcinoma cell line is cultured at 37° C. under 5% CO2 in DMEM/F12+Glutamax I in the presence of 1% Hepes, 1% sodium pyruvate and 10% FBS under standard conditions. Stable MCA205-Globin-SL8-intron cell line are cultured under the same condition as MCA205 cell line with additional 2 mg/ml G418 (geneticin from Life Technologies) for selection. Stable B16F10-Globin-SL8-intron cell line are cultured under the same condition as B16F10 cell line with additional 2 mg/ml G418 (geneticin from Life Technologies) for selection. The SL8/Kb-specific (B3Z) T-cell reporter hybridoma are cultured at 37° C. under 5% CO2 in RPMI 1640 medium (Life Technologies) in the presence of 1% glutamine, 0.1% β-galactosidase, 1% penicillin/streptomycin and 10% FCS under standard conditions. […]

[3] = test system: mouse sarcoma cell line MCA205; experiment: B3Z SL8-specific T-cell activation assay, MCA205; settings: MCA205, Globin-intron-SL8
Protocol: B3Z SL8-specific T-cell activation after co-culture with (A) human melanoma A375, human lung carcinoma A549 or normal human lung fibroblast MRC5 cell lines, all transiently expressing the intron-derived SL8 peptide and the H2-K^b molecules and treated upstream with 2,5 μM or 6,25 μM isoginkgetin for 18 hours; or with (B) mouse sarcoma MCA205 or mouse melanoma B16F10 cell lines both transiently expressing the intron-derived SL8 peptide and treated upstream with 6,25 μM, 15 μM or 25 μM isoginkgetin for 18 hours. […]
Data are given as mean ±SEM. *P<0.05, **P<0.01, ***P<0.001 (unpaired student t test). […] Tumor size was assessed every 3 to 4 days until reaching the established ethical endpoints. […]
MCA205 and B16F10 mouse cell lines are transfected with the plasmid YFP-Globin-SL8-intron or with the PCDNA3 empty plasmid (negative control) with the transfection reagent jetPRIME (Ozyme) or GeneJuice (Millipore) respectively according to each manufacturer protocol. […] Finally, the β-galactosidase activity is measured using the FLUOstar OPTIMA (BMG LABTECH Gmbh, Offenburg, Germany). Results are expressed as mean ±SEM. *P<0.05, **P<0.01, ***P<0.001 (unpaired student t test).

Compound	viability [1] [%]	viability at 2.5 µM ([2]; A375, 2.5 μM) [%]	viability at 6.25 µM ([2]; A375, 6.25 μM) [%]	intron-SL8-derived antigen presentation (B3Z activation) ([3]; 15 μM or 35 μM)	PTPs-dependent (intron-derived SL8) antigen presentation (B3Z activation) ([3]; 15 μM, 25 μM or 35 μM)
COc1ccc(-c2cc(=O)c3c(O)cc(O)c(-c4cc(-c5cc(=O)c6c(O)cc(O)cc6o5)ccc4OC)c3o2)cc1 [Isoginkgetin, isoginkgetin]	> 80	100	100		
COc1ccc(-c2cc(=O)c3c(OC)cc(OP(=O)([O-])[O-])c(-c4cc(-c5cc(=O)c6c(OC)cc(OP(=O)([O-])[O-])cc6o5)ccc4OC)c3o2)cc1.[Na+].[Na+].[Na+].[Na+] [IM2P2]				decreases its presentation	does not increase the presentation
